The test system of test [1] is isolated spinal cord (monosynaptic stretch reflex). Briefly: Spinal reflex amplitudes (SRAs) in the isolated spinal cord. Details: species or system mice. As for the experimental part: Animals will be anesthetized with ketamine/xylazine and decapitated, and the spinal cord carefully dissected out of the body cavity and placed in a Sylgard-lined (Dow Corning, Midland MI) Petri dish in cooled (<4° C.) artificial cerebrospinal fluid (ACSF) containing (in mM); 125 NaCl, 2.5 KCl, 2 CaCl2, 1 MgCl2, 25 glucose, 1.25 NaH2PO4, and 26 NaHCO3 at a pH of 7.4, oxygenated with 95% O2-5% CO2. After opening and removing the dura mater, to facilitate the access of ACSF to the cord, dorsal and ventral roots will be identified and pinned out with small insect pins. Preparations will either be left intact (in animals less than 7 days old) or hemisected mid-sagittally (>1 week old animals). The hemisection in the older animals helps better oxygenate the tissue and extends the life expectancy of the isolated preparation. Under these conditions, we can hold the spinal cord functionally alive for more than 24 hours, and we have been able test SRAs in individual preparations for up to 48 hours. After a 30-60 min recovery at room temperature, glass suction electrodes will be placed on the distal parts of dorsal and ventral roots of lumbar segments L2-L5. […] For the analyses, reflex responses will be rectified and the calculated integrals of these responses measured and compared between epochs of identical duration before and after drug application. For short-term assessments of drug effects, we will average the last ten consecutive SRAs measured before drug application with the last ten consecutive SRAs after 30 min of application of the drugs per epoch. […]
Statistical Analysis: For the experiments on the isolated spinal cords, we will measure SRAs under control and drug conditions, and data will be averaged and normalized to the mean of the pre-drug values. Statistical significance will be determined with One-Way ANOVA and subsequent post-hoc comparisons or t-tests, as appropriate, and with a set <0.05 (SigmaPlot, Systat, San Jose, CA).

A further test has as its system wild type (WT) animals. Briefly: Thermal pain withdrawal reflex latencies (Hargreaves apparatus). The settings on record: for thermal withdrawal latencies: WT, pramipexole 0.5 mg/kg, SCH 39166 0.1 mg/kg. It is filed as in vivo, mice. As to the method: Assessment of baseline pain withdrawal reflex latencies (“thermal pain”): RLS is first and foremost a sensory disorder that is accompanied by a motor component. The clinical sensations (“urge to move”) stem from deep muscle tissues and are considered “painful” by many, if not most patients, unless acted on immediately (moving of the limbs). Pain from deep muscles is carried by both unmyelinated C-fibers (both peptidergic and non-peptidergic) as well as a-∂ fiber. Pain due to thermal stimulus energy is carried specifically by subsets of these nociceptors that express the transient receptor potential-V1 protein (TRPV1). These TRPV1 expressing nociceptors also have extensive cutaneous distribution and are easily activated by a heat source applied to the surface of the skin. Thus the thermal pain stimulus tested in the Hargreaves apparatus (IITC, Inc., Life Science, Model 39D) provides an appropriate surrogate for monitoring changes in deep muscle nociceptor activity that may be present in RLS, and the latencies to withdraw the hindpaw from a noxious thermal stimulus applied to the plantar surface of the hindpaw provide a measure of pain sensitivity. Animals will be removed from their home cages and placed individually in the small Plexiglas containers of the Hargreave's system (4″ width×4″ length×5″ height). The behavior room has optional low light settings to minimize visual perturbations. Each day, animals will be acclimatized on the Hargreaves platform for 1-2 hrs. Subsequently, baseline withdrawal latencies will be determined for each animal, with five independent trials performed per hindpaw per session and a mean latency calculated for each day. The tests will be administered over 4 days.
Drug injection protocol: After establishing baseline parameters, each animal will receive in weeks 1-4 once daily a single-drug i.p. injection of the respective compound: 0.9% NaCl (sham), the D3R agonist (pramipexole) at 0.1 or 0.5 mg/kg, or the D1R antagonist ecopipam ([…]) at 0.1 mg/kg, and tested for thermal pain withdrawal tolerance (details in flow chart, FIG. 5). […] Each cohort will be treated independently of each other, but all animals will receive their respective i.p. injections daily (7 days/week) between 9-11 am in the morning, to avoid possible conflicts with the circadian cycle. Thermal pain withdrawal reflexes will be tested as above on 4 subsequent days per week in the afternoon, starting on the second day of the drug injections. Subgroups a) of each cohort will be euthanized after 1 week, with subgroups b)-d) following suite in 1-week intervals (FIG. 5).
Statistical Analysis: For the behavioral experiments, withdrawal latencies under drug conditions will be averaged and normalized to the mean of the pre-drug values, and statistical significance will be determined with RM ANOVA and subsequent post-hoc comparisons, as appropriate, and with a set <0.05 (SigmaPlot, Systat, San Jose, CA). For the data analysis of the Western blots, we will use One-way ANOVA testing to assess significance, and identify group differences with appropriate post-hoc comparisons (e.g. Holm-Sidak).

Setting [2] is: short-term bath application (less than 30 min).

Entries after “also recorded” stand apart in the source; their conditions may differ.

The results in this text go back to patent publication US12220404B2, “Treatment and management of augmentation in restless legs syndrome” (East Carolina University, priority 2015, dated 2025).

Turning to `Oc1cc2c(cc1O)C(c1ccccc1)CNCC2` (stereo not drawn) [SKF 38393], the “spinal reflex amplitudes (SRAs)” value in test [1] (setting [2]) is “significantly increased them; also recorded: increases SRAs”.
With `CCCN[C@H]1CCc2nc(N)sc2C1` [pramipexole], the thermal withdrawal latencies in the test on wild type (WT) animals (acute treatment) is given as 152.9+/−2.8 % of control. In addition, the post-injection withdrawal latencies in the test on wild type (WT) animals (after 4 weeks of daily injections with pramipexole, 1 hr post-injection) is recorded as 75.2+/−32%. Also, the “post injection withdrawal latencies” value in the test on wild type (WT) animals (week 1, one hour after the first injection, 0.5 mg/kg pramipexole) was 194.65%±27. Also, the “withdrawal latencies to a thermal stimulus, weekly average” value in the test with wild type (WT) animals (week 1, pramipexole 0.5 mg/kg/day chronic injections) was 204.81%±6.3 % of control; in the test with wild type (WT) animals (week 2, pramipexole 0.5 mg/kg/day chronic injections) it was 158+/−12 % of control; in the test with wild type (WT) animals (week 3, pramipexole 0.5 mg/kg/day chronic injections), 135+/−6.5 % of control; in the test on wild type (WT) animals (week 4, pramipexole 0.5 mg/kg/day chronic injections), 85+/−11 % of control.
In the case of `CCCN1C[C@H](CSC)C[C@@H]2c3cccc4[nH]cc(c34)C[C@H]21` [pergolide], the “spinal reflex amplitudes (SRAs)” value in test [1] (setting [2]) is given as “significantly decreased SRAs; also recorded: significantly decreases SRAs over control”.
Regarding `CN1CCc2cc(Cl)c(O)cc2[C@H]2c3ccccc3CC[C@@H]21` [SCH 39166, ecopipam], the thermal withdrawal latencies in the test with wild type (WT) animals (acute treatment) is reported as 131+/−6.5 % of control. For the same molecule, the “acute modulation of thermal withdrawal responses (FIG. 2)” value with wild type (WT) animals (acute treatment, result in words) was “increase withdrawal latencies”. In addition, the “withdrawal latencies after single injection of D1R antagonist” value with wild type (WT) animals (animals treated for 4 weeks with pramipexole, 1 hour post-injection) is recorded as 150.+/−15%; in the test on wild type (WT) animals (non-treated group, week 1, one hour after the injection) it was 151 +/−13%. The “long-term effect on withdrawal latencies” value with wild type (WT) animals (daily for 4 weeks, current data sets, result in words) is listed as “does not have a significant effect”. In test [1] (additional bath-application after prolonged pramipexole exposure), the “spinal reflex amplitudes (SRAs)” value is “decreased”.
